The text below walks through data of ChEMBL document CHEMBL3124838, “Discovery of 6-aryl-azabenzimidazoles that inhibit the TBK1/IKK-ε kinases” (Bioorg Med Chem Lett, 2014).

Assay [1] addresses Serine/threonine-protein kinase PAK 2 (Homo sapiens) (UniProt Q13177). As to the kind of experiment: Inhibition of human PAK2 assessed as residual activity at 1 uM relative to control.
Assay [2] deals with MAP kinase-activated protein kinase 2 (Homo sapiens) (UniProt P49137). The assay is described as follows: Inhibition of human MAPKAP-K2 assessed as residual activity at 1 uM relative to control.
The target in assay [3] is T1, Serine/threonine-protein kinase TBK1 (Homo sapiens, UniProt Q9UHD2).
T1 sequence (Q9UHD2 whole entry): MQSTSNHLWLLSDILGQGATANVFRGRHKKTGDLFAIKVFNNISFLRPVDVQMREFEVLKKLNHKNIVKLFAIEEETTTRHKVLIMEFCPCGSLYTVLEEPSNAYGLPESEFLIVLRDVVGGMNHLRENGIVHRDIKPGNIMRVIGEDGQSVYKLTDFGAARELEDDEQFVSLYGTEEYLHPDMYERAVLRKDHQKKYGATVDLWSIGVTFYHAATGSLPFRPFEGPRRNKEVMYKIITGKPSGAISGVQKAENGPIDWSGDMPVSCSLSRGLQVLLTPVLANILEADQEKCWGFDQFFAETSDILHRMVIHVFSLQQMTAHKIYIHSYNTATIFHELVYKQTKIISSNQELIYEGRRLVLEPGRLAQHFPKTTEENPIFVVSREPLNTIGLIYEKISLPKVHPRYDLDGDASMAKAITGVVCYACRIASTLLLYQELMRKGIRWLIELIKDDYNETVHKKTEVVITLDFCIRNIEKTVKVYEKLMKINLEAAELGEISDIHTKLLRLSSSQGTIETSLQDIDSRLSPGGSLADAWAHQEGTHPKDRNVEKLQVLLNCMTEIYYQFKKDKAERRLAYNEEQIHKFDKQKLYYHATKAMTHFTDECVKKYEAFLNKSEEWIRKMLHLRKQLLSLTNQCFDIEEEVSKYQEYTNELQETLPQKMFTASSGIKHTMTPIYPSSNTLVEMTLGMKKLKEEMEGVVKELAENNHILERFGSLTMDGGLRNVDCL
As to the kind of experiment: Inhibition of TBK1 in HEK293 cells after 4.5 hrs by ISRE-luciferase reporter gene assay in presence of poly I:C. Type of assay: cell-based.

Assay [4] deals with PI3K p110 beta/p85 alpha (Homo sapiens) (UniProt P27986+P42338). As to the kind of experiment: Inhibition of human PI3K p110beta/p85alpha assessed as residual activity at 1 uM relative to control. Type of assay: protein-complex assay.
The target in assay [5] is T2, Tyrosine-protein kinase receptor TYRO3 (Homo sapiens) (UniProt Q06418).
T2 sequence (whole entry): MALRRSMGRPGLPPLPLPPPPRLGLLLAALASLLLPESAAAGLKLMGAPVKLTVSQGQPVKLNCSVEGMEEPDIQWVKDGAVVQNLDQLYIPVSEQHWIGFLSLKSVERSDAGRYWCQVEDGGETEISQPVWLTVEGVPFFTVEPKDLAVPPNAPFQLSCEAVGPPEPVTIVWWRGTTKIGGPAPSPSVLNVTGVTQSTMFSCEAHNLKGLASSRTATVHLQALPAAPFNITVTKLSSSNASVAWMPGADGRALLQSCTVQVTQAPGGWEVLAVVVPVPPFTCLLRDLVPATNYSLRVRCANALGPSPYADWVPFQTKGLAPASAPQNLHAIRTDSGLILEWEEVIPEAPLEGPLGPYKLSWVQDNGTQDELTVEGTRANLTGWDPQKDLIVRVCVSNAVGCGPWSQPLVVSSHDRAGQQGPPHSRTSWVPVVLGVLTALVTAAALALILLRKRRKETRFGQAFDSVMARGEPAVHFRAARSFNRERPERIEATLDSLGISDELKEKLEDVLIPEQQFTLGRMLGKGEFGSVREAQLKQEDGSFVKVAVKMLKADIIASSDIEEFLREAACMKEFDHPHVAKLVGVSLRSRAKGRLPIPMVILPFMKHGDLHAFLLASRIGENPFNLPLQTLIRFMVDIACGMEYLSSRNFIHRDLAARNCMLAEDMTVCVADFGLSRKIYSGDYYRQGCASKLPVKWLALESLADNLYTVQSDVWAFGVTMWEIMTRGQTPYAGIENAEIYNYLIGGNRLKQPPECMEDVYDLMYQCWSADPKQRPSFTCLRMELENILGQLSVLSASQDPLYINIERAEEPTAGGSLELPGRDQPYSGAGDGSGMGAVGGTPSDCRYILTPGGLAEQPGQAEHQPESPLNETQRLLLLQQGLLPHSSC
As to the kind of experiment: Inhibition of human RSE assessed as residual activity at 1 uM relative to control.

For assay [6], the target named is Insulin receptor (Homo sapiens) (UniProt P06213). As to the kind of experiment: Inhibition of human IR assessed as residual activity at 1 uM relative to control.
Assay [7] addresses T3, Myotonin-protein kinase (Homo sapiens) (UniProt Q09013).
T3 sequence (whole entry): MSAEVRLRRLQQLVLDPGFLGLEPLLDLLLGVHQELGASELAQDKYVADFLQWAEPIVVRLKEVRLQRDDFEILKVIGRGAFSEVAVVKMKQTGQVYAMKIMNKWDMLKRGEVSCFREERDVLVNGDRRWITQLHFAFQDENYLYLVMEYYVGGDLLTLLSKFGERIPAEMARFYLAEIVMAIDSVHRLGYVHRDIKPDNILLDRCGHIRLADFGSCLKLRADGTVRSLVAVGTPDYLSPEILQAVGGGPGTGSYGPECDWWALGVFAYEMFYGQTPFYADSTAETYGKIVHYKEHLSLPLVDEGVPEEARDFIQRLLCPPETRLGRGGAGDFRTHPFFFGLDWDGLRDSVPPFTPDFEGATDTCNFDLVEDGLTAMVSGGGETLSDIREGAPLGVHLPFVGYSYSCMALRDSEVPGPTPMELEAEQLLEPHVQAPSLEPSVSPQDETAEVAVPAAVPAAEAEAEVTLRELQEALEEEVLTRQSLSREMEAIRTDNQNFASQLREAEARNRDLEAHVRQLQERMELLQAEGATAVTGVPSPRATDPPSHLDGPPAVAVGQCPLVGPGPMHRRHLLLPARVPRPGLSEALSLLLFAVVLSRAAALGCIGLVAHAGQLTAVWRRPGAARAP
The assay is described as follows: Inhibition of human DMPK assessed as residual activity at 1 uM relative to control.

The target in assay [8] is RAC-alpha serine/threonine-protein kinase (Homo sapiens) (UniProt P31749). The assay is described as follows: Inhibition of human PKBalpha assessed as residual activity at 1 uM relative to control.
For assay [9], the target named is Serine/threonine-protein kinase PAK 5 (Homo sapiens) (UniProt Q9P286). As to the kind of experiment: Inhibition of human PAK5 assessed as residual activity at 1 uM relative to control.
In assay [10] the target is Ribosomal protein S6 kinase beta-1 (Homo sapiens) (UniProt P23443). As to the kind of experiment: Inhibition of human p70S6K assessed as residual activity at 1 uM relative to control.
The target of assay [11] is Rho-associated protein kinase 1 (Homo sapiens) (UniProt Q13464). As to the kind of experiment: Inhibition of human ROCK-1 assessed as residual activity at 1 uM relative to control.
Assay [12] concerns the target CDK2/Cyclin A2 (Homo sapiens) (UniProt P24941+P20248). As to the kind of experiment: Inhibition of human CDK2/cyclin A assessed as residual activity at 1 uM relative to control. Type of assay: protein-complex assay.

Sequence of RAC-alpha serine/threonine-protein kinase (Homo sapiens) (P31749 whole entry): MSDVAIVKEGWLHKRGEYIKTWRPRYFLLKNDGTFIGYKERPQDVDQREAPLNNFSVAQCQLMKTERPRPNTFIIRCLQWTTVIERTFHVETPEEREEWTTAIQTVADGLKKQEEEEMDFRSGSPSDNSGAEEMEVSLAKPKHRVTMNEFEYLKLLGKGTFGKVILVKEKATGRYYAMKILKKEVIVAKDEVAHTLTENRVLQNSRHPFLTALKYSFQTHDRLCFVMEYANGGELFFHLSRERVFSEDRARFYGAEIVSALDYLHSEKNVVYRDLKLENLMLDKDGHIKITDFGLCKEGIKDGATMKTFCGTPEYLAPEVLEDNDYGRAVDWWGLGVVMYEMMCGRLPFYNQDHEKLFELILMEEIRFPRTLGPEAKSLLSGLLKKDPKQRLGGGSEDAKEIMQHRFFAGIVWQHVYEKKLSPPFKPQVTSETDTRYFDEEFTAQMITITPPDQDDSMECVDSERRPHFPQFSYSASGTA
Sequence of Rho-associated protein kinase 1 (Homo sapiens) (Q13464 2-1354 limits assumed): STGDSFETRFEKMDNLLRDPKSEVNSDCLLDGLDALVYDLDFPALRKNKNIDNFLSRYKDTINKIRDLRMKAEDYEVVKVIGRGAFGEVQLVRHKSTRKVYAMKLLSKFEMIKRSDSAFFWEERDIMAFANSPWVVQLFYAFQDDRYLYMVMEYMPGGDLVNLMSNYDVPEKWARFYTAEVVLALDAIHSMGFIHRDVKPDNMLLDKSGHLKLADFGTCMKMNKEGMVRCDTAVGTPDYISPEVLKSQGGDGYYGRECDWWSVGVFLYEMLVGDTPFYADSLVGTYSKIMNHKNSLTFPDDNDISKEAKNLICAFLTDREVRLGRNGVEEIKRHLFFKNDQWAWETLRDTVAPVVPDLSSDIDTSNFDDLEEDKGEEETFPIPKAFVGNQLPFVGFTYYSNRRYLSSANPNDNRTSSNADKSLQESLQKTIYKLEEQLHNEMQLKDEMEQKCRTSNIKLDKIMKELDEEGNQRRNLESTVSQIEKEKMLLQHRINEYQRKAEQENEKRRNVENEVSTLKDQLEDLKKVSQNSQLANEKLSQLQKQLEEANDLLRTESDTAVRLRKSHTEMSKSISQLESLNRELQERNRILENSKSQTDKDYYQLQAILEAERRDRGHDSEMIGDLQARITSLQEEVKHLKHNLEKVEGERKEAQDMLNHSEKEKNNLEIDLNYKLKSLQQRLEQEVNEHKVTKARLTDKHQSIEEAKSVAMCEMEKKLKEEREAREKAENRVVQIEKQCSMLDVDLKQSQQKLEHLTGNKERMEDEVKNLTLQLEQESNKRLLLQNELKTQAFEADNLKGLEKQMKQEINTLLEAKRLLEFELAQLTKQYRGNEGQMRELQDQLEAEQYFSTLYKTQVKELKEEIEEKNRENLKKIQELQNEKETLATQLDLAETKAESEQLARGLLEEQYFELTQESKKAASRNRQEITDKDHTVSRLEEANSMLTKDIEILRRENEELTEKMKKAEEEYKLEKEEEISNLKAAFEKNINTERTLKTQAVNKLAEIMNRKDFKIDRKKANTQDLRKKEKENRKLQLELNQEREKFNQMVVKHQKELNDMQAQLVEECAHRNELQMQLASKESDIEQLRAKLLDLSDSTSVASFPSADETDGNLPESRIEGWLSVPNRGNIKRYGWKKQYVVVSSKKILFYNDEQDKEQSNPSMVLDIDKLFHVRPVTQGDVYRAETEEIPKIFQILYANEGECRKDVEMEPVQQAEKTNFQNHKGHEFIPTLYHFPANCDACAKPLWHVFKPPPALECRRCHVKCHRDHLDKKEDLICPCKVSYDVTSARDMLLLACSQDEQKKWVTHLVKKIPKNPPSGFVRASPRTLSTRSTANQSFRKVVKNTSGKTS
Sequence of PI3K p110 beta/p85 alpha (Homo sapiens) (P27986 2-724 limits assumed): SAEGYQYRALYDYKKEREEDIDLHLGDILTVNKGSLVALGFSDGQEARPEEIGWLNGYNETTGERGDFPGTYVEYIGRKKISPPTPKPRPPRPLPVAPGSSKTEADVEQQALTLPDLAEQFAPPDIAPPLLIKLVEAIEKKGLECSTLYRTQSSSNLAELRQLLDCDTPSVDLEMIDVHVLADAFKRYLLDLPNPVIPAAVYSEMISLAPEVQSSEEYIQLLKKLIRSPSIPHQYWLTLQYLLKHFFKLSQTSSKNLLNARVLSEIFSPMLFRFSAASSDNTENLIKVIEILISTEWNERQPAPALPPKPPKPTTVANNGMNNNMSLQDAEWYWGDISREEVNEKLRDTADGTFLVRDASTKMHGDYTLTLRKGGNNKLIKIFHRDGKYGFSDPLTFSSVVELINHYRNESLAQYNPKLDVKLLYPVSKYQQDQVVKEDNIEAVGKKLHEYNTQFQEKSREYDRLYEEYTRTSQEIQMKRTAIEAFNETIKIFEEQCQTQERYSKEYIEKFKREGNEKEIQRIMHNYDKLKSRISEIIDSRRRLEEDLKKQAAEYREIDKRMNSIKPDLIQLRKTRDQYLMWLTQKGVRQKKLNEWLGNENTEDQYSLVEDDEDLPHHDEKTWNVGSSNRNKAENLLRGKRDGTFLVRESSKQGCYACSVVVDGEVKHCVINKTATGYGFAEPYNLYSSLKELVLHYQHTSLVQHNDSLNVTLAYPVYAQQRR
Sequence of PI3K p110 beta/p85 alpha (Homo sapiens) (P42338 whole entry partner): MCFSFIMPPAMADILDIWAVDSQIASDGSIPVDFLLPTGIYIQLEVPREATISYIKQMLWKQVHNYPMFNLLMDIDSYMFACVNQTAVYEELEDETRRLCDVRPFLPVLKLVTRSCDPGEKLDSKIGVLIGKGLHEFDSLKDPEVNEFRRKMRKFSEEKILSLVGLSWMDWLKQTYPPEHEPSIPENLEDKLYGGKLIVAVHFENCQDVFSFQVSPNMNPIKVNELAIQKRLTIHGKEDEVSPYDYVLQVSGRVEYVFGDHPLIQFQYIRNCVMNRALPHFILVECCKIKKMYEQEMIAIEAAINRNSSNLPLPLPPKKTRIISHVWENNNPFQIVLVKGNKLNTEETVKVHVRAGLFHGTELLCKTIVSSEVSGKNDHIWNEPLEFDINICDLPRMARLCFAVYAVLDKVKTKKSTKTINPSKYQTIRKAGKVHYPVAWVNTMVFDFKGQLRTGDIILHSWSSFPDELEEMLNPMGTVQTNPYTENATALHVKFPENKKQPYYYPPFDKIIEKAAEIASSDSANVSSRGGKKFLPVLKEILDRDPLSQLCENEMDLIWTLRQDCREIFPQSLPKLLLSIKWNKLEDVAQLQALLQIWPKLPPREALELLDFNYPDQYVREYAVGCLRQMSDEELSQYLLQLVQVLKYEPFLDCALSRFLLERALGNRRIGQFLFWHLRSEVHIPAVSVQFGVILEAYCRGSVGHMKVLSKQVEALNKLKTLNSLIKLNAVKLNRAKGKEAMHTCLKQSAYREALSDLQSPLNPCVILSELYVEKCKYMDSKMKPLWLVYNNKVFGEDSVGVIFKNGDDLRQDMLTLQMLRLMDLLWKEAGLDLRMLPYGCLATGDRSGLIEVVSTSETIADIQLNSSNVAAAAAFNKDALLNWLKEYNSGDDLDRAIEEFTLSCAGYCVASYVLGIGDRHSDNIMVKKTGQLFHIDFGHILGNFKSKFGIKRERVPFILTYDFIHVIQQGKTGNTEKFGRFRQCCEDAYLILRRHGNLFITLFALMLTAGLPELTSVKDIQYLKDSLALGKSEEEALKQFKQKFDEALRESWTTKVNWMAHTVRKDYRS
Sequence of Ribosomal protein S6 kinase beta-1 (Homo sapiens) (P23443 whole entry, looked up): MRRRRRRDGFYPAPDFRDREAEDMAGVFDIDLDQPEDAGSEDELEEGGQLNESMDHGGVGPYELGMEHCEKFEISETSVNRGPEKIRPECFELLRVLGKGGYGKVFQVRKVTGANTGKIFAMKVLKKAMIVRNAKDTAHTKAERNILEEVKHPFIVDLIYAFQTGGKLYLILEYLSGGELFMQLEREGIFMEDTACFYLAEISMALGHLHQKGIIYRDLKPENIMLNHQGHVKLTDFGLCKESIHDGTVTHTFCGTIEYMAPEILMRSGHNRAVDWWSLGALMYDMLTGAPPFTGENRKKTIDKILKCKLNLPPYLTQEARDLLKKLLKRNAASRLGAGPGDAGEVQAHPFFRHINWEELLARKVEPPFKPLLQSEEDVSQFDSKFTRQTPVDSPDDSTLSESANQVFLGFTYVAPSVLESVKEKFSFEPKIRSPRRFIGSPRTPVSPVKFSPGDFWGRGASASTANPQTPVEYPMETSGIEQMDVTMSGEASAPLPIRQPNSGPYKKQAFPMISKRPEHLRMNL
Sequence of Serine/threonine-protein kinase PAK 2 (Homo sapiens) (Q13177 whole entry): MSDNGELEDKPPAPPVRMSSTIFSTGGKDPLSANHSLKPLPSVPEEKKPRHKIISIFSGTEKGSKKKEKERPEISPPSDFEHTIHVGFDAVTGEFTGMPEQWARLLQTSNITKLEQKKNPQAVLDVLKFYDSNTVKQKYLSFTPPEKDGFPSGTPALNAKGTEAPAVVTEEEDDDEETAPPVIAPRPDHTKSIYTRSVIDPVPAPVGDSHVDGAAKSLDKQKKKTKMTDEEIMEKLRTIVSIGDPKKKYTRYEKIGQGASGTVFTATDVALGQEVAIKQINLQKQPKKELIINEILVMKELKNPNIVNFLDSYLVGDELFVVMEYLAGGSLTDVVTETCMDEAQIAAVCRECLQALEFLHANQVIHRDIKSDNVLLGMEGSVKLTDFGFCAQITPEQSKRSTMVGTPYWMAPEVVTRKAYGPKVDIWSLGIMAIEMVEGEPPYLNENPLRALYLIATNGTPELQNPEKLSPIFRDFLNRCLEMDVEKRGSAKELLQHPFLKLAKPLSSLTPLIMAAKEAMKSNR
Sequence of MAP kinase-activated protein kinase 2 (Homo sapiens) (P49137 whole entry, looked up): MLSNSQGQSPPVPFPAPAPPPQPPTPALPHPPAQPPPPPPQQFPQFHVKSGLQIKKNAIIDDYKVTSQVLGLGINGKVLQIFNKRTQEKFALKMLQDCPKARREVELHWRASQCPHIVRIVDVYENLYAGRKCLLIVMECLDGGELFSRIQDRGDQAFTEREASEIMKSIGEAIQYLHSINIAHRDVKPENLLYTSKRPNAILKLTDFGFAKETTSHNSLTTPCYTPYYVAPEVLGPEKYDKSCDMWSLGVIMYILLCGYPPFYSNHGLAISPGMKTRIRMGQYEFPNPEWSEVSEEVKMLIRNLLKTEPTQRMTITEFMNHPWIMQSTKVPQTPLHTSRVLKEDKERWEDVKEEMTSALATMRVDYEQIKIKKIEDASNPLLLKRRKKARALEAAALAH

Turning to `COc1ccc(-c2nc3cc(-c4csc(C(=O)NCC(C)(C)C)c4)cnc3[nH]2)cc1`, the Activity in assay [1] turned out to be 92%; in [2] it was 98%; in [4], 89%; in assay [5], 104%; in [6], 92%; in assay [7] it was 104%. In addition, the Activity in assay [8] stood at 107%; in assay [9] it was 94%; in assay [10] it was 87%; in assay [11], 104%; in assay [12] it was 98%. Also, in assay [3], the IC50 came to 30 nM.

As for `COc1ccc(-c2nc3cc(-c4csc(C(=O)NCCC(C)C)c4)cnc3[nH]2)cc1`, the Activity in assay [1] came out at 94%; in assay [2], 94%; in assay [4] it was 92%; in assay [5], 104%; in [6] it was 80%; in assay [7], 100%. Moreover, the Activity in [8] was 111%; in [9] it was 86%; in assay [10], 80%; in [11], 98%; in [12], 92%. For the same molecule, the half-inhibitory concentration (IC50) in assay [3] turned out to be 78 nM.

As to `COc1ccc(-c2nc3cc(-c4csc(C(=O)NCC(C)C)c4)cnc3[nH]2)cc1`, the Activity is 90% in assay [1]; 101% in assay [2]; 89% in [4]; 112% in assay [5]; 102% in assay [6]; 97% in assay [7]. Also, the Activity was 119% in assay [8]; 97% in assay [9]; 84% in [10]; 113% in [11]; 103% in assay [12]. The IC50 in assay [3] amounted to 37 nM.

A word on the IC50: it is the concentration at which inhibition is half-maximal.
